According to PubChem BioAssay (NCI):
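Tested at 5 concentrations; 48 h exposure; 96-well plates; endpoints linearly interpolated, else capped at highest concentration. Definition used: TGI = concentration required for complete inhibition of growth.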

Assays:
Assay in all cases: inhibition of tumour cell growth, NCI panel, 48 h
[1] = test system: 786-0 renal
[2] = test system: A549 NSCLC
[3] = test system: ACHN renal
[4] = test system: CCRF-CEM leukemia
[5] = test system: COLO 205 colon
[6] = test system: DLD-1 colon
[7] = test system: DMS 114 small cell lung
[8] = test system: EKVX NSCLC
[9] = test system: HCC-2998 colon
[10] = test system: HCT-116 colon
[11] = test system: HL-60(TB) leukemia
[12] = test system: HOP-18 NSCLC
[13] = test system: HOP-62 NSCLC
[14] = test system: HOP-92 NSCLC
[15] = test system: HT29 colon
[16] = test system: IGROV1 ovarian
[17] = test system: KM12 colon
[18] = test system: KM20L2 colon
[19] = test system: LOX IMVI melanoma
[20] = test system: LXFL 529 NSCLC
[21] = test system: M14 melanoma
[22] = test system: M19-MEL melanoma
[23] = test system: MALME-3M melanoma
[24] = test system: MOLT-4 leukemia
[25] = test system: NCI-H226 lung
[26] = test system: NCI-H23 lung
[27] = test system: NCI-H460 lung
[28] = test system: OVCAR-3 ovarian
[29] = test system: OVCAR-4 ovarian
[30] = test system: OVCAR-5 ovarian
[31] = test system: OVCAR-8 ovarian
[32] = test system: RPMI-8226 leukemia
[33] = test system: RXF 393 renal
[34] = test system: RXF-631 renal
[35] = test system: SF-268 CNS
[36] = test system: SF-295 CNS
[37] = test system: SK-MEL-2 melanoma
[38] = test system: SK-MEL-28 melanoma
[39] = test system: SK-MEL-5 melanoma
[40] = test system: SN12C renal
[41] = test system: SNB-19 CNS
[42] = test system: SNB-75 CNS
[43] = test system: SNB-78 CNS
[44] = test system: SW-620 colon
[45] = test system: TK-10 renal
[46] = test system: U251 CNS
[47] = test system: UACC-257 melanoma
[48] = test system: UACC-62 melanoma
[49] = test system: UO-31 renal
[50] = test system: A498 renal
[51] = test system: CAKI-1 renal
[52] = test system: DMS 273 small cell lung
[53] = test system: HCT-15 colon
[54] = test system: K-562 leukemia
[55] = test system: NCI-H522 lung
[56] = test system: SF-539 CNS
[57] = test system: SK-OV-3 ovarian
[58] = test system: SR leukemia

For `O=C(CC1Sc2ccccc2NC1=O)Nc1ccc([N+](=O)[O-])cc1[N+](=O)[O-]` (stereo not given), the TGI [1] was 31.7 µM, the TGI [2] was 88.7 µM and the TGI [3] was 30.3 µM. It also gave a TGI [4] of 39.6 µM, a TGI [5] greater than 100 µM and a TGI [6] of 28.6 µM. The TGI [7] was 27.5 µM, the TGI [8] was 69.2 µM and the TGI [9] was greater than 100 µM. The TGI [10] was 29.8 µM, the TGI [11] was 41.9 µM and the TGI [12] was 46 µM. It also gave a TGI [13] greater than 100 µM, a TGI [14] of 31.3 µM and a TGI [15] of 33.1 µM. It also gave a TGI [16] of 39.1 µM, a TGI [17] of 59.5 µM and a TGI [18] of 79.5 µM. It also gave a TGI [19] of 30.1 µM, a TGI [20] of 28.7 µM and a TGI [21] of 31.2 µM. It also gave a TGI [22] of 30.3 µM, a TGI [23] of 40.6 µM and a TGI [24] of 62.6 µM. It also gave a TGI [25] of 42.6 µM, a TGI [26] of 27.2 µM and a TGI [27] of 59.5 µM. For the same molecule, the TGI [28] was 31.5 µM, the TGI [29] was 52.6 µM and the TGI [30] was 62.3 µM. For the same molecule, the TGI [31] was 31 µM, the TGI [32] was 32.3 µM and the TGI [33] was 26.3 µM. It also gave a TGI [34] of 41.4 µM, a TGI [35] of 30.9 µM and a TGI [36] of 34.2 µM. For the same molecule, the TGI [37] was 46.5 µM, the TGI [38] was 31.8 µM and the TGI [39] was 33.4 µM. The TGI [40] was 29.7 µM, the TGI [41] was 40.7 µM and the TGI [42] was 38.7 µM. For the same molecule, the TGI [43] was 51.7 µM, the TGI [44] was 32.4 µM and the TGI [45] was greater than 100 µM. For the same molecule, the TGI [46] was 30.3 µM, the TGI [47] was 46.2 µM and the TGI [48] was 28.8 µM. For the same molecule, the TGI [49] was 25.1 µM.

`Clc1cc(Cl)c2n[se]nc2c1` was tested, and the TGI [1] was greater than 100 µM, the TGI [50] was greater than 100 µM and the TGI [2] was greater than 100 µM. It also gave a TGI [3] greater than 100 µM, a TGI [51] greater than 100 µM and a TGI [4] greater than 100 µM. The TGI [52] was greater than 100 µM, the TGI [8] was greater than 100 µM and the TGI [9] was greater than 100 µM. It also gave a TGI [10] greater than 100 µM, a TGI [53] greater than 100 µM and a TGI [11] greater than 100 µM. For the same molecule, the TGI [12] was greater than 100 µM, the TGI [13] was greater than 100 µM and the TGI [15] was greater than 100 µM. For the same molecule, the TGI [16] was greater than 100 µM, the TGI [54] was greater than 100 µM and the TGI [17] was greater than 100 µM. For the same molecule, the TGI [18] was greater than 100 µM, the TGI [19] was greater than 100 µM and the TGI [21] was greater than 100 µM. The TGI [22] was greater than 100 µM, the TGI [23] was greater than 100 µM and the TGI [24] was greater than 100 µM. For the same molecule, the TGI [26] was greater than 100 µM, the TGI [27] was greater than 100 µM and the TGI [55] was greater than 100 µM. For the same molecule, the TGI [29] was greater than 100 µM, the TGI [30] was greater than 100 µM and the TGI [31] was greater than 100 µM. For the same molecule, the TGI [32] was greater than 100 µM, the TGI [33] was greater than 100 µM and the TGI [34] was greater than 100 µM. For the same molecule, the TGI [35] was greater than 100 µM, the TGI [36] was greater than 100 µM and the TGI [56] was greater than 100 µM. The TGI [37] was greater than 100 µM, the TGI [38] was greater than 100 µM and the TGI [39] was greater than 100 µM. It also gave a TGI [57] greater than 100 µM, a TGI [40] greater than 100 µM and a TGI [41] greater than 100 µM. For the same molecule, the TGI [42] was greater than 100 µM, the TGI [43] was greater than 100 µM and the TGI [58] was greater than 100 µM. For the same molecule, the TGI [44] was greater than 100 µM, the TGI [45] was greater than 100 µM and the TGI [46] was greater than 100 µM. For the same molecule, the TGI [47] was greater than 100 µM, the TGI [48] was greater than 100 µM and the TGI [49] was greater than 100 µM.
